From patent US12441704B2, “Compounds active towards nuclear receptors” (NUEVOLUTION A/S, priority 2019, dated 2025)
pEC50: −log10 of the molar value.

target: T1, RORγ ligand-binding domain fused to Gal4 (Homo sapiens, UniProt P51449); assay: RORγ Reporter Assay (Gal4); format: cell-based; conditions: HEK293 cells co-transfected with RORγ LBD-Gal4 and luciferase reporter; 24 h incubation; absolute EC50; read-out: EC50
T1 construct: Gal4 (galactose-responsive transcription factor); expressed in transfected cells; host or cells: HEK293
T1 sequence (P51449 269-508 limits assumed): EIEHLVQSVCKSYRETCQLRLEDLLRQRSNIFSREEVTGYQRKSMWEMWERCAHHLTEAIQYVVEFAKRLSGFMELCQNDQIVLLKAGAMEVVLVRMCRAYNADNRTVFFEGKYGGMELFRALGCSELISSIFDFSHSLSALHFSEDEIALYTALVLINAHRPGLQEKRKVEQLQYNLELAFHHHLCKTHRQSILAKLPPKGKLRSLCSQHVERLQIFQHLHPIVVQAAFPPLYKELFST
Method: The HEK293 cell line is co-transfected transiently with two plasmids, one with the RORγ ligand-binding domain fused to galactose-responsive transcription factor (Gal4), and the other with the luciferase reporter gene and Gal binding sites (UAS). This construction allows to determine the RORγ activity in a cellular system through the measurement of luminescence.
A suspension of RORγ reporter cells was dispensed into plates and cultured 2 h at 37° C. and 5% CO2. Media formulation consisted in DMEM/F-12 medium (Gibco) supplemented with 10% heat inactivated FBS (Sigma-Aldrich), non-essential aminoacids (Sigma-Aldrich), 2 mM Glutamax (Gibco) and 100 U/mL penicillin (Sigma-Aldrich). Dose-response curves with compounds were prepared in 100% DMSO and further diluted 100-fold in culture medium. Compound solutions were added to the plate containing cells (final DMSO concentration of 0.1%) and incubated for 24 h at 37° C. and 5% CO2. Luciferase detection reagent was added to each well, and relative light units (RLUs) were quantified from each assay well using a plate reading luminometer.
Values of average RLU±S.D. were computed for all treatment sets, followed by the calculations of percent-reduction of RORγ activity in response to respective test compound. The following formula was used: activity=100*[1−[x test compound/average vehicle] where the theoretical minimum reduction (0% reduction).

pEC50 | SMILES
8.31 | NC(=O)CN1CC[C@H](CNc2ncnc(N(Cc3ccc(C(F)(F)F)cc3F)C3CC3)c2F)[C@@H](O)C1 (single isomer, unassigned) [Example A7-22-1]
8.47 | NC(=O)CN1CC[C@H](CNc2ncnc(N(Cc3ccc(C(F)(F)F)cc3F)C3CC3)c2F)[C@@H](O)C1 (single isomer, unassigned) [Example A7-22-2]
7.09 | NC(=O)CN1CC[C@@H](CNc2ncnc(N(Cc3ccc(C(F)(F)F)nc3)C3CCC3)c2F)[C@H](O)C1 (single isomer, unassigned) [Example A7-23-1]
6.20 | NC(=O)CN1CC[C@@H](CNc2ncnc(N(Cc3ccc(C(F)F)nc3)C3CC3)c2F)[C@H](O)C1 (single isomer, unassigned) [Example A7-25-1]
7.46 | CC(F)(F)c1ccc(CN(c2ncnc(NC[C@@H]3CCN(CC(N)=O)C[C@H]3O)c2F)C2CC2)cn1 (single isomer, unassigned) [Example A7-29-1]
7.21 | NC(=O)CN1CC[C@@](O)(CNc2ncnc(N(Cc3ccc(C(F)(F)F)cc3)C3CC3)c2F)[C@H](O)C1 (single isomer, unassigned) [Example D5-02-1-2]
8.03 | CCN(Cc1ccc(C(F)(F)F)cc1F)c1ncnc(NC[C@]2(O)CCN(CC(N)=O)C[C@H]2O)c1F (single isomer, unassigned) [Example D5-03-1-2]
6.48 | NC(=O)CN1CC[C@@H](CNc2ncnc(N(Cc3ccc(C(F)F)nc3)C3CC3)c2F)[C@H](O)C1 (stereo in doubt) [Example A7-25, rac-2-((3R,4R)-4-(((6-(cyclopropyl((6-(difluoromethyl)pyridin-3-yl)methyl)amino)-5-fluoropyrimidin-4-yl)amino)methyl)-3-hydroxypiperidin-1-yl)acetamide]
6.49 | NC(=O)CN1CC[C@H](CNc2ncnc(N(Cc3ccc(C(F)F)nc3)C3CC3)c2F)[C@@H](O)C1 (stereo in doubt) [Example A7-25-2, rel-2-((3R,4R)-4-(((6-(cyclopropyl((6-(difluoromethyl)pyridin-3-yl)methyl)amino)-5-fluoropyrimidin-4-yl)amino)methyl)-3-hydroxypiperidin-1-yl)acetamide]
7.77 | CCN(Cc1ccc(C(F)(F)F)cc1F)c1ncnc(NC[C@@H]2CCN(CC(N)=O)C[C@H]2O)c1F (stereo in doubt) [Example A7-26, rac-2-((3R,4R)-4-(((6-(ethyl(2-fluoro-4-(trifluoromethyl)benzyl)amino)-5-fluoropyrimidin-4-yl)amino)methyl)-3-hydroxypiperidin-1-yl)acetamide]
7.05 | CC(c1ccc(C(F)(F)F)cc1)N(c1ncnc(NCC2CCN(CC(N)=O)CC2)c1F)C1CC1 (stereo not drawn) [Example A7-34, 2-(4-(((6-(cyclopropyl(1-(4-(trifluoromethyl)phenyl)ethyl)amino)-5-fluoropyrimidin-4-yl)amino)methyl)piperidin-1-yl)acetamide]

The remaining lines, values behind:

SMILES | pEC50
NC(=O)CN1CCC(CNc2ncnc(N(Cc3ccc(C(F)(F)F)cc3)C3CC3)c2F)C(C(F)(F)F)C1 (single isomer, unassigned) [Example A7-07-1, 2-(4-(((6-(cyclopropyl(4-(trifluoromethyl)benzyl)amino)-5-fluoropyrimidin-4-yl)amino)methyl)-3-(trifluoromethyl)piperidin-1-yl)acetamide] | 7.31
NC(=O)CN1CCC(CNc2ncnc(N(Cc3ccc(C(F)(F)F)cc3)C3CC3)c2F)C(C(F)(F)F)C1 (single isomer, unassigned) [Example A7-07-2, 2-(4-(((6-(cyclopropyl(4-(trifluoromethyl)benzyl)amino)-5-fluoropyrimidin-4-yl)amino)methyl)-3-(trifluoromethyl)piperidin-1-yl)acetamide] | 7.03
NC(=O)CN1CCC(CNc2ncnc(N(Cc3ccc(C(F)(F)F)cc3)C3CC3)c2F)C(C(F)(F)F)C1 (single isomer, unassigned) [Example A7-07-4, 2-(4-(((6-(cyclopropyl(4-(trifluoromethyl)benzyl)amino)-5-fluoropyrimidin-4-yl)amino)methyl)-3-(trifluoromethyl)piperidin-1-yl)acetamide] | 6.77
NC(=O)CN1CC[C@@H](CNc2ncnc(N(Cc3ccc(OC(F)F)cc3F)C3CCC3)c2F)[C@H](O)C1 (single isomer, unassigned) [Example A7-15-1] | 7.29
NC(=O)CN1CC[C@@H](CNc2ncnc(N(Cc3ccc(C(F)(F)F)cc3)C3CCC3)c2F)[C@H](O)C1 (single isomer, unassigned) [Example A7-16-1] | 7.60
NC(=O)CN1CC[C@H](CNc2ncnc(N(Cc3cnc(C(F)(F)F)nc3)C3CC3)c2F)[C@@H](O)C1 (single isomer, unassigned) [Example A7-17-1] | 7.40
NC(=O)CN1CC[C@H](CNc2ncnc(N(Cc3cnc(C(F)(F)F)nc3)C3CCC3)c2F)[C@@H](O)C1 (single isomer, unassigned) [Example A7-18-1] | 6.85
NC(=O)CN1CC[C@H](CNc2ncnc(N(Cc3cnc(C(F)(F)F)nc3)C3CCC3)c2F)[C@@H](O)C1 (single isomer, unassigned) [Example A7-18-2] | 7.09
CN(Cc1ccc(C(F)(F)F)cc1)c1ncnc(NC[C@H]2CCN(CC(N)=O)C[C@@H]2O)c1F (single isomer, unassigned) [Example A7-20-1] | 7.46
CN(Cc1ccc(C(F)(F)F)cc1)c1ncnc(NC[C@H]2CCN(CC(N)=O)C[C@@H]2O)c1F (single isomer, unassigned) [Example A7-20-2] | 7.49
CCN(Cc1ccc(C(F)(F)F)cc1)c1ncnc(NC[C@H]2CCN(CC(N)=O)C[C@@H]2O)c1F (single isomer, unassigned) [Example A7-21-1] | 8.03
CCN(Cc1ccc(C(F)(F)F)cc1)c1ncnc(NC[C@H]2CCN(CC(N)=O)C[C@@H]2O)c1F (single isomer, unassigned) [Example A7-21-2] | 7.89
NC(=O)CN1CC[C@@H](CNc2ncnc(N(Cc3ccc(OC(F)F)cc3F)C3CCC3)c2F)[C@H](O)C1 (stereo in doubt) [Example A7-15, rac-2-((3R,4R)-4-(((6-(cyclobutyl(4-(difluoromethoxy)-2-fluorobenzyl)amino)-5-fluoropyrimidin-4-yl)amino)methyl)-3-hydroxypiperidin-1-yl)acetamide] | 6.80
NC(=O)CN1CC[C@H](CNc2ncnc(N(Cc3ccc(OC(F)F)cc3F)C3CCC3)c2F)[C@@H](O)C1 (stereo in doubt) [Example A7-15-2, rel-2-((3R,4R)-4-(((6-(cyclobutyl(4-(difluoromethoxy)-2-fluorobenzyl)amino)-5-fluoropyrimidin-4-yl)amino)methyl)-3-hydroxypiperidin-1-yl)acetamide] | 6.51
NC(=O)CN1CC[C@@H](CNc2ncnc(N(Cc3ccc(C(F)(F)F)cc3)C3CCC3)c2F)[C@H](O)C1 (stereo in doubt) [Example A7-16, rac-2-((3R,4R)-4-(((6-(cyclobutyl(4-(trifluoromethyl)benzyl)amino)-5-fluoropyrimidin-4-yl)amino)methyl)-3-hydroxypiperidin-1-yl)acetamide] | 7.72
NC(=O)CN1CC[C@H](CNc2ncnc(N(Cc3ccc(C(F)(F)F)cc3)C3CCC3)c2F)[C@@H](O)C1 (stereo in doubt) [Example A7-16-2, rel-2-((3R,4R)-4-(((6-(cyclobutyl(4-(trifluoromethyl)benzyl)amino)-5-fluoropyrimidin-4-yl)amino)methyl)-3-hydroxypiperidin-1-yl)acetamide] | 7.66
COC(=O)C1(CNc2ncnc(N(Cc3ccc(C(F)(F)F)cc3)C3CC3)c2F)CCN(CC(N)=O)CC1 [Example A7-08, methyl 1-(2-amino-2-oxoethyl)-4-(((6-(cyclopropyl(4-(trifluoromethyl)benzyl)amino)-5-fluoropyrimidin-4-yl)amino)methyl)piperidine-4-carboxylate] | 7.82
NC(=O)CN1CCC(F)(CNc2ncnc(N(Cc3ccc4c(c3)OCC(=O)N4)C3CC3)c2F)CC1 [Example A7-12] | 6.82
Cn1c(=O)oc2cc(CN(c3ncnc(NCC4(F)CCN(CC(N)=O)CC4)c3F)C3CC3)ccc21 [Example A7-13] | 6.64

same assay, conditions: compounds of the present disclosure; source: Table 2 herein; read-out: Gal4 assay EC50

pEC50 | SMILES
> 7.00 | NC(=O)CN1CCC(CO)(CNc2ncnc(N(Cc3ccc(C(F)(F)F)cc3)C3CC3)c2F)C(O)C1 (single isomer, unassigned) [Example C4-1-2, 2-(4-(((6-(Cyclopropyl(4-(trifluoromethyl)benzyl)amino)-5-fluoropyrimidin-4-yl)amino)methyl)-3-hydroxy-4-(hydroxymethyl)piperidin-1-yl)acetamide]

same assay, conditions: compounds of the present disclosure; value from Table 2 herein; read-out: Gal4 assay EC50

pEC50 | SMILES
> 7.00 | NC(=O)CN1CC[C@H](CNc2ncnc(N(Cc3cnc(C(F)(F)F)nc3)C3CC3)c2F)[C@@H](O)C1 (single isomer, unassigned) [Example A7-17-1]
> 7.00 | CC(c1ccc(C(F)(F)F)cc1)N(c1ncnc(NCC2CCN(CC(N)=O)CC2)c1F)C1CC1 (stereo not drawn) [Example A7-34, 2-(4-(((6-(cyclopropyl(1-(4-(trifluoromethyl)phenyl)ethyl)amino)-5-fluoropyrimidin-4-yl)amino)methyl)piperidin-1-yl)acetamide]
